Measured values reported in patent US11214557B2, “MAGL inhibitors” (H. Lundbeck A/S, priority 2018, dated 2022).
pIC50: −log10 of the molar value.

What was measured:
[1] = target: MAGL (Mus musculus (Mouse), UniProt O35678); assay: Mouse brain proteomes from inhibitor treated mice (oral gavage, ABPP analysis); assay type: in vivo; conditions: 5 mg/kg oral gavage, 4 h after administration, read-out: MAGL % inh. 5 mg/kg (mouse)
Description: Preparation of Mouse Brain Proteomes from Inhibitor Treated Mice
Inhibitors were administered to wild-type C57Bl/6J by oral gavage in a vehicle of polyethylene glycol.

[2] = target: MAGL (Homo sapiens (Human), UniProt Q99685); assay: In vitro competitive activity-based protein profiling (human proteomes); assay type: biochemical; conditions: human proteome; for inhibition at 1 µM: 1 μM inhibitor, read-out: MAGL % inh. 1 μM (human)
Description: In Vitro Competitive Activity-Based Protein Profiling
Proteomes (mouse brain membrane fraction or cell lysates for mouse assays; human prefrontal cortex or cell membrane fractions for human assays) (50 μL, 1.0 mg/mL total protein concentration) were preincubated with varying concentrations of inhibitors at 37° C. After 30 min, FP—Rh or HT-01 (1.0 μL, 50 μM in DMSO) was added and the mixture was incubated for another 30 min at 37° C. Reactions were quenched with SDS loading buffer (15 μL—4×) and run on SDS-PAGE.

Sequence of MAGL (Mus musculus (Mouse), UniProt O35678) (O35678 whole entry): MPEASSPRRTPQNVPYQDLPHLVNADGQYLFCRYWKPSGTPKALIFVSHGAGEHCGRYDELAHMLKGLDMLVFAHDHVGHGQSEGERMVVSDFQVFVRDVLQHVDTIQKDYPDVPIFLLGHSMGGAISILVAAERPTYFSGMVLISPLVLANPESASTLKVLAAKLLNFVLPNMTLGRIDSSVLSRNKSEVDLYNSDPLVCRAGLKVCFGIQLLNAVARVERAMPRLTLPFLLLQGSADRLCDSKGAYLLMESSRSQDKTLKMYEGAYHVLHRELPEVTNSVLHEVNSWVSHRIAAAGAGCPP
Sequence of MAGL (Homo sapiens (Human), UniProt Q99685) (Q99685 whole entry): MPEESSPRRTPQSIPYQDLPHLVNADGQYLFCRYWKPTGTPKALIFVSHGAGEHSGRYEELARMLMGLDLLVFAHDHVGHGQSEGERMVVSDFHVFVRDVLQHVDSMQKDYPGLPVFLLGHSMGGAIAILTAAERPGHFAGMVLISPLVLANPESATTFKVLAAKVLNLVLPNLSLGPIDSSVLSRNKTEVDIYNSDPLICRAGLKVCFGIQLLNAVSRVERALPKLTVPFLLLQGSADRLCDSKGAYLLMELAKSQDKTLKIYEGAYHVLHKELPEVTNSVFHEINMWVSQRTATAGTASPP

CC(C)(Oc1cc(Cl)ccc1CN1CCN(C(=O)OC(C(F)(F)F)C(F)(F)F)CC1)C(=O)O [Example 1, 2-(5-Chloro-2-((4-(((1,1,1,3,3,3-hexafluoropropan-2-yl)oxy)carbonyl)piperazin-1-yl)methyl)phenoxy)-2-methylpropanoic acid]
inhibition at 5 mg/kg [1]: 0 to 25% | inhibition at 1 µM [2]: > 75% | pIC50 [2]: > 7.30

CC(C)(Oc1c(CN2CCN(C(=O)OC(C(F)(F)F)C(F)(F)F)CC2)cccc1C(F)(F)F)C(=O)O [Example 2, 2-(2-((4-(((1,1,1,3,3,3-Hexafluoropropan-2-yl)oxy)carbonyl)piperazin-1-yl)methyl)-6-(trifluoromethyl)phenoxy)-2-methylpropanoic acid]
inhibition at 5 mg/kg [1]: > 75% | inhibition at 1 µM [2]: > 75% | pIC50 [2]: > 7.30

CC(C)(Oc1cc(C(F)(F)F)ccc1CN1CCN(C(=O)OC(C(F)(F)F)C(F)(F)F)CC1)C(=O)O [Example 3, 2-(2-((4-(((1,1,1,3,3,3-Hexafluoropropan-2-yl)oxy)carbonyl)piperazin-1-yl)methyl)-5-(trifluoromethyl)phenoxy)-2-methylpropanoic acid]
inhibition at 5 mg/kg [1]: > 75% | inhibition at 1 µM [2]: > 75% | pIC50 [2]: > 7.30

CC(C)(COc1cc(C(F)(F)F)ccc1CN1CCN(C(=O)OC(C(F)(F)F)C(F)(F)F)CC1)C(=O)O [Example 4, 3-(2-((4-(((1,1,1,3,3,3-Hexafluoropropan-2-yl)oxy)carbonyl)piperazin-1-yl)methyl)-5-(trifluoromethyl)phenoxy)-22-dimethylpropanoic acid]
inhibition at 5 mg/kg [1]: > 75% | inhibition at 1 µM [2]: > 75% | pIC50 [2]: > 7.30

CC(C)(COc1cc(CN2CCN(C(=O)OC(C(F)(F)F)C(F)(F)F)CC2)cc(C(F)(F)F)c1)C(=O)O [Example 5, 3-(3-((4-(((1,1,1,3,3,3-Hexafluoropropan-2-yl)oxy)carbonyl)piperazin-1-yl)methyl)-5-(trifluoromethyl)phenoxy)-2,2-dimethylpropanoic acid]
inhibition at 5 mg/kg [1]: > 75% | inhibition at 1 µM [2]: > 75% | pIC50 [2]: > 7.30

CC(C)(Oc1cc(C(F)(F)F)ccc1CN1CCN(C(=O)OC(C(F)(F)F)C(F)(F)F)CC1)C(=O)NS(=O)(=O)C1CC1 [Example 6, 1,1,1,3,3,3-Hexafluoropropan-2-yl 4-(2-((1-(cyclopropanesulfonamido)-2-methyl-1-oxopropan-2-yl)oxy)-4-(trifluoromethyl)benzyl)piperazine-1-carboxylate]
inhibition at 5 mg/kg [1]: 0 to 25% | inhibition at 1 µM [2]: > 75% | pIC50 [2]: > 7.30

O=C(O)COc1c(F)cccc1CN1CCN(C(=O)OC(C(F)(F)F)C(F)(F)F)CC1 [Example 11, 2-(2-Fluoro-6-((4-(((1,1,1,3,3,3-hexafluoropropan-2-yl)oxy)carbonyl)piperazin-1-yl)methyl)phenoxy)acetic acid]
inhibition at 1 µM [2]: 50 to 75%

CCOC(=O)OC(C)OC(=O)C(C)(C)Oc1cc(C(F)(F)F)ccc1CN1CCN(C(=O)OC(C(F)(F)F)C(F)(F)F)CC1 (stereo not drawn) [Example 12, 1,1,1,3,3,3-Hexafluoropropan-2-yl 4-(2-((1-(1-((ethoxycarbonyl)oxy)ethoxy)-2-methyl-1-oxopropan-2-yl)oxy)-4-(trifluoromethyl)benzyl)piperazine-1-carboxylate]
inhibition at 1 µM [2]: > 75%

CC(OC(=O)C(C)C)OC(=O)C(C)(C)Oc1cc(C(F)(F)F)ccc1CN1CCN(C(=O)OC(C(F)(F)F)C(F)(F)F)CC1 (stereo not drawn) [Example 13, 1,1,1,3,3,3-Hexafluoropropan-2-yl 4-(2-((1-(1-(isobutyryloxy)ethoxy)-2-methyl-1-oxopropan-2-yl)oxy)-4-(trifluoromethyl)benzyl)piperazine-1-carboxylate]
inhibition at 1 µM [2]: > 75%

Cc1ccc(CN2CCN(C(=O)OC(C(F)(F)F)C(F)(F)F)CC2)c(OC(C)(C)C(=O)O)c1Cl [Example 17, 2-(2-Chloro-6-((4-(((1,1,1,3,3,3-hexafluoropropan-2-yl)oxy)carbonyl)piperazin-1-yl)methyl)-3-methylphenoxy)-2-methylpropanoic acid]
inhibition at 5 mg/kg [1]: 50 to 75% | inhibition at 1 µM [2]: > 75% | pIC50 [2]: > 7.30

CC(C)(Oc1cc(C#N)ccc1CN1CCN(C(=O)OC(C(F)(F)F)C(F)(F)F)CC1)C(=O)O [Example 26, 2-(5-Cyano-2-((4-(((1,1,1,3,3,3-hexafluoropropan-2-yl)oxy)carbonyl)piperazin-1-yl)methyl)phenoxy)-2-methylpropanoic acid]
inhibition at 1 µM [2]: > 75% | pIC50 [2]: > 7.30

COc1ccc(OC(C)(C)C(=O)O)cc1CN1CCN(C(=O)OC(C(F)(F)F)C(F)(F)F)CC1 [Example 35, 2-(3-((4-(((1,1,1,3,3,3-Hexafluoropropan-2-yl)oxy)carbonyl)piperazin-1-yl)methyl)-4-methoxyphenoxy)-2-methylpropanoic acid]
inhibition at 10 µM ([2]; 10 μM inhibitor, read-out: MAGL % inh. (human) @ 10 μM): > 75%

O=C(O)COc1cc(CN2CCN(C(=O)OC(C(F)(F)F)C(F)(F)F)CC2)cc(OC(F)(F)F)c1 [Example 44, 2-(3-((4-(((1,1,1,3,3,3-Hexafluoropropan-2-yl)oxy)carbonyl)piperazin-1-yl)methyl)-5-(trifluoromethoxy)phenoxy) acetic acid]
inhibition at 1 µM [2]: > 75% | pIC50 [2]: > 7.30

C[C@@H](Oc1cc(C#N)ccc1CN1CCN(C(=O)OC(C(F)(F)F)C(F)(F)F)CC1)C(=O)O [Example 45, (R)-2-(5-Cyano-2-((4-(((1,1,1,3,3,3-hexafluoropropan-2-yl)oxy)carbonyl)piperazin-1-yl)methyl)phenoxy) propanoic acid]
inhibition at 1 µM [2]: > 75%

C[C@H](Oc1cc(C#N)ccc1CN1CCN(C(=O)OC(C(F)(F)F)C(F)(F)F)CC1)C(=O)O [Example 46, (S)-2-(5-Cyano-2-((4-(((1,1,1,3,3,3-hexafluoropropan-2-yl)oxy)carbonyl)piperazin-1-yl)methyl)phenoxy) propanoic acid]
inhibition at 1 µM [2]: > 75%

CC(C)(Oc1cc(CN2CCN(C(=O)OC(C(F)(F)F)C(F)(F)F)CC2)cc(C(F)(F)F)c1)C(=O)O [Example 47, 2-(3-((4-(((1,1,1,3,3,3-Hexafluoropropan-2-yl)oxy)carbonyl)piperazin-1-yl)methyl)-5-(trifluoromethyl)phenoxy)-2-methylpropanoic acid]
inhibition at 1 µM [2]: > 75% | pIC50 [2]: > 7.30

Cc1ccc(CN2CCN(C(=O)OC(C(F)(F)F)C(F)(F)F)CC2)c(OCC(C)(C)C(=O)O)c1F [Example 48, 3-(2-Fluoro-6-((4-(((1,1,1,3,3,3-hexafluoropropan-2-yl)oxy)carbonyl)piperazin-1-yl)methyl)-3-methylphenoxy)-2,2-dimethylpropanoic acid]
inhibition at 5 mg/kg [1]: > 75% | inhibition at 1 µM [2]: > 75% | pIC50 [2]: > 7.30

CC(C)(C)C(=O)OCOC(=O)C(C)(C)Oc1cc(C(F)(F)F)ccc1CN1CCN(C(=O)OC(C(F)(F)F)C(F)(F)F)CC1 [Example 49, 1,1,1,3,3,3-Hexafluoropropan-2-yl 4-(2-((2-methyl-1-oxo-1-((pivaloyloxy)methoxy)propan-2-yl)oxy)-4-(trifluoromethyl)benzyl) piperazine-1-carboxylate]
inhibition at 1 µM [2]: > 75%

CCOC(=O)C(C)(C)Oc1cc(C(F)(F)F)ccc1CN1CCN(C(=O)OC(C(F)(F)F)C(F)(F)F)CC1 [Example 50, 1,1,1,3,3,3-Hexafluoropropan-2-yl 4-(2-((1-ethoxy-2-methyl-1-oxopropan-2-yl)oxy)-4-(trifluoromethyl)benzyl) piperazine-1-carboxylate]
inhibition at 1 µM [2]: > 75%

CC(C)OC(=O)OC(C)OC(=O)C(C)(C)Oc1cc(C(F)(F)F)ccc1CN1CCN(C(=O)OC(C(F)(F)F)C(F)(F)F)CC1 (stereo not drawn) [Example 51, 1,1,1,3,3,3-Hexafluoropropan-2-yl 4-(2-((1-(1-((isopropoxycarbonyl)oxy)ethoxy)-2-methyl-1-oxopropan-2-yl)oxy)-4-(trifluoromethyl)benzyl) piperazine-1-carboxylate]
inhibition at 1 µM [2]: > 75%
